Assay results from US11926596B2, “Inhibitors of Rho associated coiled-coil containing protein kinase” (KADMON CORPORATION, LLC, priority 2017, dated 2024).
Where two headings read alike, the source gives them in different places.

Assays:
[1] = molecular target: T1, recombinant ROCK2 (amino acids 1-552) (Homo sapiens, UniProt O75116); test: Z'-lyte kinase assay, ROCK2; type: biochemical; conditions: for inhibition at 0.5 µM / inhibition at 3 µM / inhibition at 1 µM: read-out: ROCK2 % inh
T1 construct: ROCK2 (amino acids 1-552) proteins were purchased from ThermoFisher Scientific; purchased ThermoFisher Scientific
T1 sequence (O75116 1-552): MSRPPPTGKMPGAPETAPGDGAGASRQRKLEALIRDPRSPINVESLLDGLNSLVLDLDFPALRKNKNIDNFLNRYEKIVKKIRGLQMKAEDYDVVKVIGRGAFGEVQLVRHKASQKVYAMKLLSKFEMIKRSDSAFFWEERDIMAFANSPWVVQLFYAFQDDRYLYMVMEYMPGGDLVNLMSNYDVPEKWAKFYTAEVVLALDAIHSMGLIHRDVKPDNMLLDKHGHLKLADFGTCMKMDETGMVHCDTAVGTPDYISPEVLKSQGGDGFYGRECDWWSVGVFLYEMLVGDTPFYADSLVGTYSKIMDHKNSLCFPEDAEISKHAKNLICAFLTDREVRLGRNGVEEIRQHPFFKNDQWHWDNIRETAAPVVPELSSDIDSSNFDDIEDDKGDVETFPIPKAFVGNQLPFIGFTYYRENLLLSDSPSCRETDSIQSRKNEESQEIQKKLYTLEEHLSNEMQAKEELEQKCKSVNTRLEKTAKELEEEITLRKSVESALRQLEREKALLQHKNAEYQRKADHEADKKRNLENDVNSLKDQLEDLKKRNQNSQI
Description: (§1) Determination of compounds ROCK inhibitory activity in vitro (Z'lyte assay): recombinant ROCK1 (amino acids 1-535) and ROCK2 (amino acids 1-552) proteins were purchased from ThermoFisher Scientific. Compounds activities were measured by Z′-lyte kinase kit (ThermoFisher Scientific) and IC50s were calculated.
(§2) Table 2, below, provides in vitro and cellular inhibition of ROCKs by compounds of the invention. Compounds activities were measured by Z′-lyte kinase kit (ThermoFisher Scientific). […] IC50s were calculated using the GraphPad Prism software with kinase activities data that were collected from points 9 serial dilution of compounds treatment. The ROCK inhibition in A7R5 cells and NIH3T3 (Acta2-Luc) cells was performed as described above.

[2] = tested on: luciferase reporter driven by the human ACTA2 gene promoter in NIH3T3 cells; test: NIH3T3 cells Acta2-promoter driven-luciferase assay; type: cell-based; conditions: plus TGF 1, 24 hr, read-out: NIH3T3, Acta2-luc, IC50
Description: NIH3T3 cells Acta2-promoter driven-luciferase assay: A NIH3T3 cell line stably expressing a luciferase reporter driven by the human ACTA2 gene promoter (−1000-1 bp) was established (NIH3T3-Acta2-luciferase). The cells were plated to confluence and treated with the test compounds plus TGF 1 for 24 hr. Cells were then lysed and luciferase activity was measured using the LightSwitch luciferase kit from Active Motif.

[3] = molecular target: T2, recombinant ROCK1 (amino acids 1-535) (Homo sapiens, UniProt Q13464); test: Z'-lyte kinase assay, ROCK1; type: biochemical
T2 construct: recombinant ROCK1 (amino acids 1-535) and ROCK2; purchased ThermoFisher Scientific
T2 sequence (Q13464 1-535): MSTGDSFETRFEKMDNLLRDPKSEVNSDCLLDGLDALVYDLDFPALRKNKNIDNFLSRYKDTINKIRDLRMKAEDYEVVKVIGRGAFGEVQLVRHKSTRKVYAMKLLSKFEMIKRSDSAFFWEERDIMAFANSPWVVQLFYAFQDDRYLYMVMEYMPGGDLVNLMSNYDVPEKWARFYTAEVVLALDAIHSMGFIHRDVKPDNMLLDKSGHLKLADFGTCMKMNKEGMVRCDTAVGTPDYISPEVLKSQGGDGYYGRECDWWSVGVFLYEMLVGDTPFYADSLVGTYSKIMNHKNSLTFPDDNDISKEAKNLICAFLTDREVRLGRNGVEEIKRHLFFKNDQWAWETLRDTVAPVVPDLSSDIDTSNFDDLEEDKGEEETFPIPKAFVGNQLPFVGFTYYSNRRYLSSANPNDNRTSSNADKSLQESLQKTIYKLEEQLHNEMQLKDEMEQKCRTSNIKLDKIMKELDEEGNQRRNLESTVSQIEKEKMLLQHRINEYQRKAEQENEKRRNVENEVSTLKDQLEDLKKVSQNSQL
Description: as §1, §2

[4] = tested on: phospho-myosin light chains (ppMlc, Thr18/Ser19) in A7R5 cells; test: A7R5 in-cell ELISA, phospho-myosin light chain; type: cell-based, rat; conditions: for IC50 / inhibition at 10 µM: Rattus norvegicus, A7R5 cells; for cellular ROCK inhibition compared with Comparative Example 2: phosphorylation of the ROCK target pMLC in A7R5 cells; for inhibition at 10 µM: read-out: pMLC % inh A7R5
Description: Determination of compounds ROCK inhibitory activity in A7R5 cells: rat aortic smooth muscle cell line A7R5 cells were maintained and treated in DMEM medium with 10% of fetal bovine serum. Cells were seeded with density of 5,000 cells/well in 96-well plates for 24 hours and subsequently treated 90 min with testing compounds. Cells were then fixed and processed according to the In-Cell ELISA Colorimetric Detection Kit manual (Thermo Scientific). Cellular phospho-myosin light chains (ppMlc, Thr18/Ser19) levels were determined after treatments of DMSO control or test compounds using the In-Cell ELISA kit. The percent inhibition rate was calculated by applying the data obtained with 1 μM (or 10 μM) compound treatment to the formula, [1-(compound/DMSO)]×100%. ppMlc data obtained with 9 points 2-fold serial dilution of compounds were applied to the nonlinear regression curve fit function of the GraphPad Prism software to calculate the In cell IC50s.
A7R5 cells were treated with 9 points 2 fold serial dilution of compounds and ppMlc (T18/S19) levels were determined in order to calculate cellular IC50s of the compounds.
Two steps of measurements were adopted for pMLC/A7R5 IC50. Percent inhibition rates were calculated with a single dose (1 μM or 10 μM) compounds treatment to screen for active compounds and then cellular IC50s were measured only in compounds that have over 50% of inhibition rates.

[5] = 1.5 h, 90 min, read-out: pMLC IC50 A7R5
[6] = ppMlc (T18/S19), 9 points 2 fold serial dilution, read-out: ppMIc IC50

Row | SMILES | inhibition at 0.5 µM [1] [%] | IC50 [2] [nM] | IC50 [3] [nM] | IC50 [4, 5] [nM] | IC50 [4, 6] [nM] | IC50 [1] [nM] | inhibition at 3 µM [1] [%] | inhibition at 3 µM ([3]; read-out: ROCK1 % inh) [%] | inhibition at 1 µM [1] [%] | cellular ROCK inhibition compared with Comparative Example 2 [4] | inhibition at 10 µM [4] [%] | inhibition at 0.5 µM ([3]; @ 0.5 μM, read-out: ROCK1 % inh) [%]
1 | CNC(C(=O)Nc1ccc2[nH]ncc2c1)c1ccc(Oc2ccc(OC)cc2)cc1 (centres unmarked) [Example 14, N-(1H-indazol-5-yl)-2-(4-(4-methoxyphenoxy)phenyl)-2-(methylamino)acetamide] | 100 | 678 | 32.6 | 207 | 207 |  |  |  |  |  |  | 
2 | CNC(C(=O)Nc1ccc2[nH]ncc2c1)c1ccccc1Cl (centres unmarked) [Example 47, 2-(2-chlorophenyl)-N-(1H-indazol-5-yl)-2-(methylamino)acetamide] |  | 659 | 8.3 | 461 | 461 | 135 |  |  |  |  |  | 
3 | CCNC(C(=O)Nc1ccc2[nH]ncc2c1)c1ccc(OC)cc1 (centres unmarked) [Example 26, 2-(ethylamino)-N-(1H-indazol-5-yl)-2-(4-methoxyphenyl)acetamide] |  | 845 | 24 | 261 |  | 12 | 98.8 | 99 |  |  |  | 
4 | CNC(C(=O)Nc1ccc2[nH]ncc2c1)c1ccc(Cl)cc1 (centres unmarked) [Example 16, 2-(4-chlorophenyl)-N-(1H-indazol-5-yl)-2-(methylamino)acetamide] |  | 915 | 3.8 | 252 |  | 15 |  | 93.2 | 99 | enhanced |  | 
5 | CCNC(C(=O)Nc1ccc2[nH]ncc2c1)c1cccc(F)c1 (centres unmarked) [Example 51, 2-(ethylamino)-2-(3-fluorophenyl)-N-(1H-indazol-5-yl)acetamide] |  | 5450 |  | 1660 |  | 53 |  |  |  |  |  | 
6 | CNC(C(=O)Nc1ccc2[nH]ncc2c1)c1cccc(C)c1 (centres unmarked) [Example 52, N-(1H-indazol-5-yl)-2-(methylamino)-2-(m-tolyl)acetamide] |  | 1510 |  | 532 |  | 34 |  |  |  |  |  | 
7 | CNC(C(=O)Nc1ccc2[nH]ncc2c1)c1ccc(OC)c(F)c1 (centres unmarked) [Example 57, 2-(3-fluoro-4-methoxyphenyl)-N-(1H-indazol-5-yl)-2-(methylamino)acetamide] | 95 | 473 |  | 339 |  | 25 |  |  |  |  |  | 
8 | CNC(C(=O)Nc1ccc2[nH]ncc2c1)c1ccc(-c2ccccc2OC)cc1 (centres unmarked) [Example 32, N-(1H-indazol-5-yl)-2-(2′-methoxy-[1,1′-biphenyl]-4-yl)-2-(methylamino)acetamide] |  |  | 310 |  |  | > 1000 |  |  |  |  | 5 | 
9 | COc1ccc(C(NC(C)C)C(=O)Nc2ccc3[nH]ncc3c2)cc1 (centres unmarked) [Example 25, N-(1H-indazol-5-yl)-2-(isopropylamino)-2-(4-methoxyphenyl)acetamide] |  |  | 10.6 | 633 |  | 9.7 | 98.8 | 99 |  |  |  | 
10 | CN[C@H](C(=O)Nc1ccc2[nH]ncc2c1)c1cccc(OC)c1 [Example 55, (S)-N-(1H-indazol-5-yl)-2-(3-methoxyphenyl)-2-(methylamino)acetamide] |  | 773 |  | 589 |  | 30 |  |  |  |  |  | 
11 | CCNC(C(=O)Nc1ccc2[nH]ncc2c1)c1cccc(Cl)c1 (centres unmarked) [Example 58, 2-(3-chlorophenyl)-2-(ethylamino)-N-(1H-indazol-5-yl)acetamide] | 61 | 1090 |  | 722 |  | 64 |  |  |  |  |  | 85
12 | CC(C)(C)NC(C(=O)Nc1ccc2[nH]ncc2c1)c1ccccc1 (centres unmarked) [Example 37, 2-(tert-butylamino)-N-(1H-indazol-5-yl)-2-phenylacetamide] |  |  | 98.1 | 2600 |  | 74.3 | 98.8 | 99 |  |  |  | 
13 | CNC(C(=O)Nc1ccc2[nH]ncc2c1)c1cccc(Cl)c1 (centres unmarked) [Example 42, 2-(3-chlorophenyl)-N-(1H-indazol-5-yl)-2-(methylamino)acetamide] |  | 882 | 8.8 | 454 |  | 16 |  |  |  |  |  | 
14 | CNC(C(=O)Nc1ccc2[nH]ncc2c1)c1ccc(OC(F)(F)F)cc1 (centres unmarked) [Example 56, N-(1H-indazol-5-yl)-2-(methylamino)-2-(4-(trifluoromethoxy)phenyl)acetamide] |  | 666 |  | 546 |  | 46 |  |  |  |  |  | 
15 | Cc1ccc(C(NC(C)C)C(=O)Nc2ccc3[nH]ncc3c2)cc1 (centres unmarked) [Example 29, N-(1H-indazol-5-yl)-2-(isopropylamino)-2-(p-tolyl)acetamide] |  |  | 65.7 | 934 |  | 6.3 | 98.8 | 99 |  |  |  | 
16 | Cc1ccc(C(NC(C)(C)C)C(=O)Nc2ccc3[nH]ncc3c2)cc1 (centres unmarked) [Example 38, 2-(tert-butylamino)-N-(1H-indazol-5-yl)-2-(p-tolyl)acetamide] |  |  | 61.4 | 1340 |  | 27.4 | 100 | 100 |  |  |  | 
17 | CNC(C(=O)Nc1ccc2[nH]ncc2c1)c1ccc(C)cc1 (centres unmarked) [Example 28, N-(1H-indazol-5-yl)-2-(methylamino)-2-(p-tolyl)acetamide] |  |  | 17.8 | 834 |  | 21.2 | 98.8 | 99 |  |  |  | 
18 | NC(C(=O)Nc1ccc2[nH]ncc2c1)c1ccccc1F (centres unmarked) [Comp7, reference compound] |  |  | 166 | 18400 |  | 303 | 100 | 100 |  |  |  | 
19 | CNC(C(=O)Nc1ccc2[nH]ncc2c1)c1cccc(F)c1 (centres unmarked) [Example 53, 2-(3-fluorophenyl)-N-(1H-indazol-5-yl)-2-(methylamino)acetamide] |  | 1160 |  | 914 |  | 41 |  |  |  |  |  | 
20 | Cc1ccc(C(NC2CC2)C(=O)Nc2ccc3[nH]ncc3c2)cc1 (centres unmarked) [Example 31, 2-(cyclopropylamino)-N-(1H-indazol-5-yl)-2-(p-tolyl)acetamide] |  |  | 228 |  |  | > 1000 |  |  |  |  | 35 | 
21 | CN[C@@H](C(=O)Nc1ccc2[nH]ncc2c1)c1cccc(OC)c1 [Example 54, (R)-N-(1H-indazol-5-yl)-2-(3-methoxyphenyl)-2-(methylamino)acetamide] |  | 268 |  | 200 |  | 14 |  |  |  |  |  | 
22 | CNC(C(=O)Nc1ccc2[nH]ncc2c1)c1ccc(OC)cc1 (centres unmarked) [Example 24, N-(1H-indazol-5-yl)-2-(4-methoxyphenyl)-2-(methylamino)acetamide] |  | 321 | 3.89 | 224 |  | 3.6 | 98.8 | 99 |  |  |  | 
23 | COc1ccc(C(N)C(=O)Nc2ccc3[nH]ncc3c2)cc1 (centres unmarked) [Comp4, reference compound] |  |  |  | 6160 |  |  |  | 95.8 | 96.5 |  |  | 
24 | CCNC(C(=O)Nc1ccc2[nH]ncc2c1)c1ccc(Cl)cc1 (centres unmarked) [Example 17, 2-(4-chlorophenyl)-2-(ethylamino)-N-(1H-indazol-5-yl)acetamide] |  |  | < 10 | 556 |  | 248 | 96.3 | 93.3 |  | enhanced |  | 
25 | O=C(Nc1ccc2[nH]ncc2c1)C1NCc2ccccc21 (centres unmarked) [Example 6, N-(1H-indazol-5-yl)isoindoline-1-carboxamide] |  |  | 421 |  |  | > 1000 |  |  |  |  | 1 | 
26 | CC(C)NC(C(=O)Nc1ccc2[nH]ncc2c1)c1ccc(F)cc1 (centres unmarked) [Example 20, 2-(4-fluorophenyl)-N-(1H-indazol-5-yl)-2-(isopropylamino)acetamide] |  |  | 561 | 2510 |  | 152 | 94.6 | 18.4 |  |  |  | 
